Literature values, collected in article PMC7904743, “WIDOCK: a reactive docking protocol for virtual screening of covalent inhibitors” (Journal of Computer-Aided Molecular Design, 2021).
Like-named read-outs stand apart in the source and are kept apart here.

Tests used:
[1] = test system: OTUB2; conditions: experimental actives if % labeling higher than 50%, cited from earlier work
[2] = test system: NUDT7; conditions: protein labeling at 200 μM; experimental actives if % labeling higher than 50%; cited from earlier work
[3] = thiol reactivity, cited from earlier work
[4] = natural log of average rate constant k
[5] = natural logarithm of average rate constant
[6] = natural log of average kinetic rate constant
[7] = natural log of average rate constant

For `O=C(CCl)NC(=O)OCc1ccccc1` [PCM-0102153, O=C(CCl)NC(=O)OCc1ccccc1], the OTUB2 % labeling [1] is given as 79%, the NUDT7 % labeling [2] is given as 0% and the “ln(avg k)” value [3, 4] is given as -16.245. For the same molecule, the “ln(avg k)” value [3, 5] was -16.245.

For `O=C(CCl)NC1CS(=O)(=O)CC1Cl` (stereo not shown) [PCM-0102291, O=C(CCl)NC1CS(=O)(=O)CC1Cl], the OTUB2 % labeling [1] is given as 0%, the NUDT7 % labeling [2] is given as 12% and the “ln(avg k)” value [3, 4] is given as -16.221. The “ln(avg k)” value [3, 5] was -16.221.

In the case of `Cc1ccc(CNC(=O)CCl)cc1F` [PCM-0102959, Cc1ccc(CNC(=O)CCl)cc1F], the OTUB2 % labeling ([1]; OTUB2 protein labeling) is given as 50%, the NUDT7 % labeling [2] is given as 0% and the “ln(avg k)” value [3, 6] is given as -16.344. For the same molecule, the “ln(avg k)” value [3, 7] was -16.344.

In the case of `COC(=O)c1sccc1NC(=O)CCl` [PCM-0102367, COC(=O)c1sccc1NC(=O)CCl], the OTUB2 % labeling [1] is listed as 0%, the NUDT7 % labeling [2] is listed as 12% and the “ln(avg k)” value [3, 4] is listed as -15.715. For the same molecule, the “ln(avg k)” value [3, 5] was -15.715.

In the case of `O=C(CCl)Nc1cccnc1` [PCM-0102653, O=C(CCl)Nc1cccnc1], the OTUB2 % labeling [1] is given as 0%, the NUDT7 % labeling [2] is given as 0% and the “ln(avg k)” value [3, 4] is given as -16.863. The “ln(avg k)” value [3, 5] was -16.863.

For `N#Cc1cccc(NC(=O)CCl)c1` [PCM-0103033, N#Cc1cccc(NC(=O)CCl)c1], the OTUB2 % labeling ([1]; OTUB2 protein labeling) is listed as 23%, the NUDT7 % labeling [2] is listed as 0% and the “ln(avg k)” value [3, 6] is listed as -15.647. The “ln(avg k)” value [3, 7] was -15.647.

In the case of `CC(=O)N1CCN(C(=O)CCl)CC1` [PCM-0102535, CC(=O)N1CCN(C(=O)CCl)CC1], the OTUB2 % labeling [1] is listed as 0%, the NUDT7 % labeling [2] is listed as 6% and the “ln(avg k)” value [3, 4] is listed as -15.085. The “ln(avg k)” value [3, 5] was -15.085.

For `Cc1ccc(C)c(-n2nc(C)cc2NC(=O)CCl)c1` [PCM-0102249, Cc1ccc(C)c(-n2nc(C)cc2NC(=O)CCl)c1], the OTUB2 % labeling [1] is listed as 43%, the NUDT7 % labeling [2] is listed as 0% and the “ln(avg k)” value [3, 4] is listed as -15.689. The “ln(avg k)” value [3, 5] was -15.689.

For `COc1ccc(NC(=O)CCl)cc1` [PCM-0102156, COc1ccc(NC(=O)CCl)cc1], the OTUB2 % labeling [1] is listed as 52%, the NUDT7 % labeling [2] is listed as 0% and the “ln(avg k)” value [3, 4] is listed as -15.521. For the same molecule, the “ln(avg k)” value [3, 5] was -15.521.

In the case of `CN(Cc1ccsc1)C(=O)CCl` [PCM-0102865, CN(Cc1ccsc1)C(=O)CCl], the OTUB2 % labeling ([1]; OTUB2 protein labeling) is listed as 0%, the NUDT7 % labeling [2] is listed as 9% and the “ln(avg k)” value [3, 6] is listed as -16.224. For the same molecule, the “ln(avg k)” value [3, 7] was -16.224.

For `CC1CCN(C(=O)CCl)c2ccccc2S1` (stereo not shown) [PCM-0102216, CC1CCN(C(=O)CCl)c2ccccc2S1], the OTUB2 % labeling [1] is listed as 0%, the NUDT7 % labeling [2] is listed as 32% and the “ln(avg k)” value [3, 4] is listed as -16.224. For the same molecule, the “ln(avg k)” value [3, 5] was -16.224.

In the case of `CC(NC(=O)CCl)c1cccc2ccccc12` (stereo not shown) [PCM-0102275, CC(NC(=O)CCl)c1cccc2ccccc12], the OTUB2 % labeling [1] is listed as 73%, the NUDT7 % labeling [2] is listed as 32% and the “ln(avg k)” value [3, 4] is listed as -16.435. The “ln(avg k)” value [3, 5] was -16.435.

In the case of `CC(NC(=O)CCl)C1CC2CCC1C2` (stereo not shown) [PCM-0102572, CC(NC(=O)CCl)C1CC2CCC1C2], the OTUB2 % labeling [1] is given as 0%, the NUDT7 % labeling [2] is given as 0% and the “ln(avg k)” value [3, 4] is given as -17.138. For the same molecule, the “ln(avg k)” value [3, 5] was -17.138.

In the case of `O=C(CCl)NCc1cccs1` [PCM-0102280, O=C(CCl)NCc1cccs1], the OTUB2 % labeling [1] is given as 22%, the NUDT7 % labeling [2] is given as 0% and the “ln(avg k)” value [3, 4] is given as -16.889. For the same molecule, the “ln(avg k)” value [3, 5] was -16.889.

In the case of `CN(Cc1cnn(C)c1)C(=O)CCl` [PCM-0102899, CN(Cc1cnn(C)c1)C(=O)CCl], the OTUB2 % labeling ([1]; OTUB2 protein labeling) is listed as 26%, the NUDT7 % labeling [2] is listed as 8% and the “ln(avg k)” value [3, 6] is listed as -15.596. For the same molecule, the “ln(avg k)” value [3, 7] was -15.596.

For `Cc1cc(Cl)ccc1NC(=O)CCl` [PCM-0102214, Cc1cc(Cl)ccc1NC(=O)CCl], the OTUB2 % labeling [1] is given as 39%, the NUDT7 % labeling [2] is given as 8% and the “ln(avg k)” value [3, 4] is given as -16.385. The “ln(avg k)” value [3, 5] was -16.385.

In the case of `CN(Cc1ccccc1Br)C(=O)CCl` [PCM-0102592, CN(Cc1ccccc1Br)C(=O)CCl], the OTUB2 % labeling [1] is given as 12%, the NUDT7 % labeling [2] is given as 14% and the “ln(avg k)” value [3, 4] is given as -16.295. For the same molecule, the “ln(avg k)” value [3, 5] was -16.295.

In the case of `CC(C)(C)OC(=O)N1CCN(C(=O)CCl)CC1` [PCM-0102786, CC(C)(C)OC(=O)N1CCN(C(=O)CCl)CC1], the OTUB2 % labeling ([1]; OTUB2 protein labeling) is given as 0%, the NUDT7 % labeling [2] is given as 0% and the “ln(avg k)” value [3, 6] is given as -15.946. For the same molecule, the “ln(avg k)” value [3, 7] was -15.946.

In the case of `O=C(CCl)Nc1nc(-c2cccs2)cs1` [PCM-0102784, O=C(CCl)Nc1nc(-c2cccs2)cs1], the OTUB2 % labeling ([1]; OTUB2 protein labeling) is listed as 7%, the NUDT7 % labeling [2] is listed as 77% and the “ln(avg k)” value [3, 6] is listed as -16.029. The “ln(avg k)” value [3, 7] was -16.029.

In the case of `CCC1c2ccsc2CCN1C(=O)CCl` (stereo not shown) [PCM-0103051, CCC1c2ccsc2CCN1C(=O)CCl], the OTUB2 % labeling ([1]; OTUB2 protein labeling) is listed as 0%, the NUDT7 % labeling [2] is listed as 30% and the “ln(avg k)” value [3, 6] is listed as -15.594. For the same molecule, the “ln(avg k)” value [3, 7] was -15.594.

For `CN(C(=O)CCl)C1(C#N)CCCCC1` [PCM-0102916, CN(C(=O)CCl)C1(C#N)CCCCC1], the OTUB2 % labeling ([1]; OTUB2 protein labeling) is listed as 0%, the NUDT7 % labeling [2] is listed as 0% and the “ln(avg k)” value [3, 6] is listed as -15.114. For the same molecule, the “ln(avg k)” value [3, 7] was -15.114.

For `O=C(CCl)NC1CCS(=O)(=O)C1` (stereo not shown) [PCM-0102138, O=C(CCl)NC1CCS(=O)(=O)C1], the OTUB2 % labeling [1] is given as 0%, the NUDT7 % labeling [2] is given as 0% and the “ln(avg k)” value [3, 4] is given as -15.936. The “ln(avg k)” value [3, 5] was -15.936.
